Source: ChEMBL document CHEMBL4622966, “Synthesis of Novel Ciprofloxacin-Based Hybrid Molecules toward Potent Antimalarial Activity” (ACS Med Chem Lett, 2020)
pIC50: −log10 of the molar value. Calls of active or inactive are those of the source. No cut-off for these calls is given here.

How the values were obtained:
Plasmodium falciparum [1] = assay: Antimalarial activity against CQ-sensitive Plasmodium falciparum 3D7 assessed as inhibition of parasite growth; format: functional, organism-based
Plasmodium falciparum [2] = assay: Antimalarial activity against CQ-resistant Plasmodium falciparum NF54-R assessed as inhibition of parasite growth; format: functional, organism-based
Heme [3] = assay: Binding affinity to monomeric heme after 24 hrs by UV-Visible Spectroscopic analysis
Plasmodium falciparum [4] = assay: Antiplasmodial activity against Plasmodium falciparum infected in human erythrocytes assessed as reduction in hemozoin size at 30 nM after 48 hrs by giemsa staining based light microscopic analysis; format: functional, organism-based
[5] = Lipophilicity, log P of the compound; format: physicochemical; conditions: octanol/water
Erythrocyte [6] = assay: Hemolytic activity against human RBC infected with CQ-resistant Plasmodium falciparum W2 at 10 to 45 uM; format: ADME, cell-based
Plasmodium falciparum [7] = assay: Antimalarial activity against CQ-sensitive Plasmodium falciparum 3D7 infected in human erythrocytes after 48 hrs by SYBR Green1 dye based fluorescence assay; format: functional, organism-based; conditions: 3D7, 48 h
Erythrocyte [8] = assay: Hemolytic activity against human RBC infected with CQ-sensitive Plasmodium falciparum 3D7 at 10 to 45 uM; format: ADME, cell-based
Erythrocyte [9] = assay: Hemolytic activity against uninfected human RBC at 10 to 45 uM; format: ADME, cell-based
Plasmodium falciparum [10] = assay: Antimalarial activity against CQ-sensitive Plasmodium falciparum 3D7 infected in human erythrocytes after 96 hrs by SYBR Green1 dye based fluorescence assay; format: functional, organism-based; conditions: 3D7, 96 h
Plasmodium falciparum [11] = assay: Antimalarial activity against CQ-resistant Plasmodium falciparum W2 infected in human erythrocytes after 48 hrs by SYBR Green1 dye based fluorescence assay; format: functional, organism-based; conditions: W2, 48 h
Plasmodium falciparum [12] = assay: Potency index, ratio of ciprofloxacin IC50 to test compound IC50 for antimalarial activity against CQ-resistant Plasmodium falciparum W2 infected in human erythrocytes after 96 hrs by SYBR Green1 dye based fluorescence assay; format: functional
Plasmodium falciparum [13] = assay: Antimalarial activity against CQ-resistant Plasmodium falciparum W2 infected in human erythrocytes after 96 hrs by SYBR Green1 dye based fluorescence assay; format: functional, organism-based; conditions: W2, 96 h
Plasmodium falciparum [14] = assay: Resistance index, ratio of IC50 for antimalarial activity against CQ-resistant Plasmodium falciparum W2 infected in human erythrocytes after 48 hrs to IC50 for antimalarial activity against CQ-sensitive Plasmodium falciparum 3D7 infected in human erythrocytes after 48 hrs by SYBR Green1 dye based fluorescence assay; format: functional
Plasmodium falciparum [15] = assay: Binding affinity to Gyrase in Plasmodium falciparum assessed as accumulation of single-stranded DNA binding protein at 25 nM after 96 hrs by Western blot analysis
Plasmodium falciparum [16] = assay: Antimalarial activity against synchronized schizont stage of Plasmodium falciparum infected in human erythrocytes at 50 to 100 nM; format: functional, organism-based
Plasmodium falciparum [17] = assay: Potency index, ratio of ciprofloxacin IC50 to test compound IC50 for antimalarial activity against CQ-resistant Plasmodium falciparum W2 infected in human erythrocytes after 48 hrs by SYBR Green1 dye based fluorescence assay; format: functional
Plasmodium falciparum [18] = assay: Potency index, ratio of chloroquine IC50 to test compound IC50 for antimalarial activity against CQ-resistant Plasmodium falciparum W2 infected in human erythrocytes after 48 hrs by SYBR Green1 dye based fluorescence assay; format: functional
NIH3T3 = assay: Cytotoxicity against mouse NIH/3T3 cells up to 10 uM after 72 hrs by MTT assay; format: cell-based; conditions: nih3t3, 72 h
Heme [19] = assay: Binding affinity to monomeric heme at 100 nM to 4.5 uM after 24 hrs by UV-Visible Spectroscopic analysis
Plasmodium falciparum [20] = assay: Antimalarial activity against Plasmodium falciparum infected in human erythrocytes assessed as parasitemia at 1 to 10 nM after 96 hrs by SYBR Green1 dye based fluorescence assay; format: functional, organism-based
Plasmodium falciparum [21] = assay: Antimalarial activity against Plasmodium falciparum infected in human erythrocytes assessed as parasitemia at 1 to 10 nM after 48 hrs by SYBR Green1 dye based fluorescence assay; format: functional, organism-based
Plasmodium falciparum [22] = assay: Antimalarial activity against synchronized ring stage of Plasmodium falciparum infected in human erythrocytes at 50 to 100 nM; format: functional, organism-based
Plasmodium falciparum [23] = assay: Potency index, ratio of ciprofloxacin IC50 to test compound IC50 for antimalarial activity against CQ-sensitive Plasmodium falciparum 3D7 infected in human erythrocytes after 96 hrs by SYBR Green1 dye based fluorescence assay; format: functional
Escherichia coli = assay: Toxicity in Escherichia coli DH10B assessed as growth inhibition at 500 nM to 1 uM after 6 hrs; format: organism-based, str. K-12 substr. DH10B; conditions: in vivo, 0.5 µM
Plasmodium falciparum [24] = assay: Potency index, ratio of ciprofloxacin IC50 to test compound IC50 for antimalarial activity against CQ-sensitive Plasmodium falciparum 3D7 infected in human erythrocytes after 48 hrs by SYBR Green1 dye based fluorescence assay; format: functional
Plasmodium falciparum [25] = assay: Antiplasmodial activity against Plasmodium falciparum infected in human erythrocytes assessed as reduction in hemozoin size at 50 to 100 nM after 48 hrs by giemsa staining based light microscopic analysis; format: functional, organism-based
Plasmodium falciparum [26] = assay: Antimalarial activity against Plasmodium falciparum infected in human erythrocytes assessed as parasitemia at 1 to 15 uM after 96 hrs by SYBR Green1 dye based fluorescence assay; format: functional, organism-based
Plasmodium falciparum [27] = assay: Binding affinity to Gyrase in Plasmodium falciparum assessed as accumulation of single-stranded DNA binding protein at 15 uM after 96 hrs by Western blot analysis
Plasmodium falciparum [28] = assay: Antimalarial activity against Plasmodium falciparum infected in human erythrocytes assessed as parasitemia at 1 to 15 uM after 48 hrs by SYBR Green1 dye based fluorescence assay; format: functional, organism-based

`COc1c(N2CCNC(C)C2)c(F)cc2c(=O)c(C(=O)O)cn(C3CC3)c12` (stereo not given) [GATIFLOXACIN] gave a pIC50 (Plasmodium falciparum [1]) of under 5.00 and a pIC50 (Plasmodium falciparum [2]) of under 5.00.
For `CCN(CC)CCCC(C)Nc1ccnc2cc(Cl)ccc12` (stereo not given), the Activity (Heme [3]) was “Dose-dependent effect” and the Activity (Plasmodium falciparum [4]) was “Active”.
In the case of `CCOC(=O)c1cn(C2CC2)c2cc(N3CCN(c4c5ccc(Cl)cc5nc5ccc(OC)cc45)CC3)c(F)cc2c1=O`, the logP [5] was 6.31, the Activity (Erythrocyte [6]) was “Non-Toxic” and the pIC50 (Plasmodium falciparum [7]) was 6.44. For the same compound, the Activity (Erythrocyte [8]) was “Non-Toxic”, the Activity (Erythrocyte [9]) was “Non-Toxic” and the pIC50 (Plasmodium falciparum [10]) was 6.51.
Work on `COc1c(N2C[C@@H]3CCCN[C@@H]3C2)c(F)cc2c(=O)c(C(=O)O)cn(C3CC3)c12` [MOXIFLOXACIN] yielded a pIC50 (Plasmodium falciparum [1]) of under 5.00 and a pIC50 (Plasmodium falciparum [2]) of under 5.00.
With `CCOC(=O)c1cn(C2CC2)c2cc(N3CCN(c4ccnc5cc(Cl)ccc45)CC3)c(F)cc2c1=O` the pIC50 (Plasmodium falciparum [11]) was 7.20, the logP [5] was 5.02 and the “Ratio IC50” value (Plasmodium falciparum [12]) was 200 - 700. The pIC50 (Plasmodium falciparum [13]) was 7.51, the “Ratio IC50” value (Plasmodium falciparum [14]) was 2.47 and the Activity (Plasmodium falciparum [15]) was “inactive”. The Activity (Plasmodium falciparum [16]) was “Active”, the “Ratio IC50” value (Plasmodium falciparum [17]) was 200 - 700 and the “Ratio IC50” value (Plasmodium falciparum [18]) was 3. For the same compound, the Activity (NIH3T3) was “Non-Toxic”, the Activity (Heme [19]) was “inactive” and the Activity (Erythrocyte [6]) was “Non-Toxic”. For the same compound, the pIC50 (Plasmodium falciparum [7]) was 7.59, the Activity (Plasmodium falciparum [20]) was “Active” and the Activity (Erythrocyte [8]) was “Non-Toxic”. For the same compound, the Activity (Plasmodium falciparum [21]) was “Active”, the Activity (Plasmodium falciparum [22]) was “Active” and the Activity (Erythrocyte [9]) was “Non-Toxic”. The pIC50 (Plasmodium falciparum [10]) was 7.87, the “Ratio IC50” value (Plasmodium falciparum [23]) was 1000 and the Activity (Escherichia coli) was “Non-Toxic”. The “Ratio IC50” value (Plasmodium falciparum [24]) was 1000 and the Activity (Plasmodium falciparum [25]) was “inactive”.
`Cc1c(F)c(N2CCNC(C)C2)cc2c1c(=O)c(C(=O)O)cn2C1CC1` (stereo not given) [GREPAFLOXACIN] gave a pIC50 (Plasmodium falciparum [1]) of under 5.00 and a pIC50 (Plasmodium falciparum [2]) of under 5.00.
In the case of `O=C(O)c1cn(C2CC2)c2cc(N3CCNCC3)c(F)cc2c1=O` [CIPROFLOXACIN], the pIC50 (Plasmodium falciparum [11]) was 4.43, the pIC50 (Plasmodium falciparum [13]) was 4.64 and the Activity (Plasmodium falciparum [26]) was “Active”. For the same compound, the Activity (Heme [19]) was “inactive”, the pIC50 (Plasmodium falciparum [7]) was 4.34 and the pIC50 (Plasmodium falciparum [10]) was 4.58. The Activity (Plasmodium falciparum [27]) was “Active” and the Activity (Plasmodium falciparum [28]) was “inactive”.
For `CCOC(=O)c1cn(C2CC2)c2cc(N3CCN(S(=O)(=O)c4ccc(C(F)(F)F)cc4)CC3)c(F)cc2c1=O`, the pIC50 (Plasmodium falciparum [11]) was 6.84, the logP [5] was 4.29 and the “Ratio IC50” value (Plasmodium falciparum [12]) was 200 - 700. For the same compound, the pIC50 (Plasmodium falciparum [13]) was 7.48, the “Ratio IC50” value (Plasmodium falciparum [14]) was 3.88 and the “Ratio IC50” value (Plasmodium falciparum [17]) was 200 - 700. For the same compound, the “Ratio IC50” value (Plasmodium falciparum [18]) was 7, the Activity (Erythrocyte [6]) was “Non-Toxic” and the pIC50 (Plasmodium falciparum [7]) was 7.42. The Activity (Erythrocyte [8]) was “Non-Toxic”, the Activity (Erythrocyte [9]) was “Non-Toxic” and the pIC50 (Plasmodium falciparum [10]) was 7.83. The “Ratio IC50” value (Plasmodium falciparum [23]) was 1000 and the “Ratio IC50” value (Plasmodium falciparum [24]) was 1000.
For `CCOC(=O)c1cn(C2CC2)c2cc(N3CCN(C(=O)/C=C/c4ccccc4)CC3)c(F)cc2c1=O`, the logP [5] was 3.81, the Activity (Erythrocyte [6]) was “Non-Toxic” and the pIC50 (Plasmodium falciparum [7]) was 5.04. For the same compound, the Activity (Erythrocyte [8]) was “Non-Toxic”, the Activity (Erythrocyte [9]) was “Non-Toxic” and the pIC50 (Plasmodium falciparum [10]) was 5.32.
